The values below come from patent US20250084095A1, “Aminopyrimidine Derivatives as Cyclin-Dependent Kinase Inhibitors” (Accutar Biotechnology Inc., priority 2023, published 2025).

One assay has as its system 22RV1 cells. As to the kind of experiment: Cell growth inhibition of 22RV1 cells (CellTiter-Glo). The format is cell-based. The conditions noted are these: Homo sapiens, 22Rv1, 120 h, 5 days, CellTiter-Glo, read-out: 22RV1 Cell Growh GI50. Here is the method:
For cell growth assay, 22RV1 (ATCC, CRL-2505) cells were seeded in 96-well plates at 1000 cells/well in 90 μl of RPMI1640 growth medium containing 20% FBS and 1% Penicillin Streptomycin, and then incubated at 37° C. overnight. The following day, the test compound was administered to the cells by using 1000× compound stock solution prepared in DMSO at various concentrations. 1000× compound stock solution was first diluted in culturing medium to 10×, then 10 uL compound medium was added to each well in the cell plates. After administration of the compound, the cells were then incubated at 37° C. for 5 days. Upon completion, the plates were equilibrated at room temperature for approximately 10 min. 100 μl of CellTiter-Glo® Reagent (Promega) was added to each well. The plates were then incubated at room temperature for 10 min and luminescence was recorded by EnSpire plate reader (PerkinElmer).
22RV1 cells were obtained from American Type Culture Collection (ATCC, CRL-2505). 22RV1 cells were seeded in 96-well plates at 1000 cells/well in 90 μL of RPMI1640 growth medium containing 10% FBS and 1% Penicillin Streptomycin, and then incubated at 37° C. overnight. The following day, the test compound was administered to the cells by using 1000× compound stock solution prepared in DMSO at various concentrations. […], then 10 uL compound medium was added to each well in the cell plates. After administration of the compound, the cells were then incubated at […] for 5 days. Upon completion, the plates were equilibrated at room temperature for approximately 10 minutes. 100 μL of CellTiter-Glo® Reagent (Promega) was added to each well. The plates were then incubated at room temperature for 10 minutes and luminescence was recorded by EnSpire plate reader (PerkinElmer).
(In general: Cellular ATP, detected with luciferase, serves as a proxy for viable cell number.)

Assay [1] has as its system Phospho-Rb (Ser807/811) in MCF7 cells. The assay is described as follows: Phospho-Rb expression inhibition in MCF7 cells quantified by in cell Western. The format is cell-based, human. The following applies: Homo sapiens, MCF7, 24 h, 24 hours, in cell Western, read-out: MCF7 pRb IC50. On the procedure: MCF7 cells were obtained from American Type Culture Collection (ATCC, HTB-22). MCF7 cells were plated in 96-well plates (VWR #10062-900, or Coming #3904) in 90 μL culture medium at a density of 20,000 cells/well in the DMEM growth medium containing 10%/FBS and 1% Penicillin Streptomycin, and then incubated at 37° C. overnight. The following day, the test compound was administered to the cells by using 1000× compound stock solution prepared in DMSO at various concentrations. 1000× compound stock solution was first diluted in culturing medium to 10×, then 10 μL compound medium was added to each well in the cell plates. After administration of the compound, the cells were then incubated at 37° C. for 24 h. Upon completion, the cells were washed with PBS briefly. 150 μL/well of 4% formaldehyde was added and the plates were incubated at room temperature for 20 min. The cells were washed with PBS briefly, and permeabilized with 150 µL/well of ice cold 100% methanol for 10 min. The cells were washed with PBS briefly and blocked with 100 µL/well LI-COR blocking buffer for 1 h at room temperature with gentle shaking. The cells were incubated overnight at 4° C. with 50 μL primary antibody rabbit anti-Phospho-Rb (Ser807/811) (1: 500, Cell Signaling, #8516) and anti-Rb (1:200, Santa Cruz, sc-73598) diluted in Intercept Blocking Buffer (LI-COR, #927-60001) containing 0.1% Tween 20. The next day, the cells were washed with 200 μL PBS containing 0.1% Tween 20, 5×5 mins at room temperature with gentle shaking, and incubated with 50 μL secondary antibody, IRDye® 800CW Goat anti-Rabbit IgG (1:1000, LI-COR, #926-32211) and FRDye® 680RD Goat anti-Mouse IgG (1:1000, LI-COR, #926-68070), in LI-COR […] blocking buffer with 0.2% Tween 20 for 1 h at room temperature with gentle shaking. The cells were washed with 200 μL PBS containing 0.1% Tween 20, 5×5 min at room temperature with gentle shaking. The cells were washed with PBS for 5 mins. 100 μL fresh PBS was added to each well and the plates were imaged on a LI-COR Odyssey CLX plate reader.
MCF7 cells were obtained from American Type Culture Collection (ATCC, HTB-22). SW1573-CDK6 KO and SW1573-CDK4 KO cells were generated by the CRISPR-Cas9 technology. All cells were plated in 96-well plates (VWR #10062-900, or Corning #3904) in 90 uL culture medium at a density of 20,000 cells/well in the respective growth medium containing 10% FBS and 1% Penicillin Streptomycin, and then incubated at 37° C. overnight. The following day, the test compound was administered to the cells by using 1000× compound stock solution prepared in DMSO at various concentrations. 1000× compound stock solution was first diluted in culturing medium to 10×, then 10 uL compound medium was added to each well in the cell plates. After administration of the compound, the cells were then incubated at 37° C. for 24 hours. Upon completion, the cells were washed with PBS briefly. 150 uL/well of 4% formaldehyde was added and the plates were incubated at room temperature for 20 mins. The cells were washed with PBS briefly, and permeabilized with 150 uL/well of ice cold 100% methanol for 10 mins. The cells were washed with PBS briefly and blocked with 100 uL/well LI-COR blocking buffer for 1 hr at room temperature with gentle shaking. The cells were incubated overnight at 4° C. with 50 uL primary antibody rabbit anti-Phospho-Rb (Ser807/811) (1: 500, Cell Signaling, #8516) and anti-Rb (1:200, Santa Cruz, sc-73598) diluted in Intercept Blocking Buffer (LI-COR, #927-60001) containing 0.1% Tween 20. The next day, the cells were washed with 200 uL PBS containing 0.1% Tween 20, 5×5 mins at room temperature with gentle shaking, and incubated with 50 uL secondary antibody, IRDye® 800CW Goat anti-Rabbit IgG (1:1000, LI-COR, #926-32211) and IRDye®680RD Goat anti-Mouse IgG (1:1000, LI-COR, #926-68070), in LI-COR blocking buffer with 0.2% Tween 20 for 1 hr at room temperature with gentle shaking. […]

pIC50: −log10 of the molar value.

By GI50 is commonly meant the concentration at which growth is held to half of that of the control. The term pIC50 denotes the negative decadic logarithm of the IC50, by convention in mol/L. On to `CC(C)n1c(C(F)(F)CO)nc2c(F)cc(-c3nc(N[C@@H]4C[C@H]5CO[C@H](O5)[C@H]4O)ncc3Cl)cc21` [Compound 176, (1S,3R,4S,5R)-3-((5-chloro-4-(2-(1,1-difluoro-2-hydroxyethyl)-4-fluoro-1-isopropyl-1H-benzo[d]imidazol-6-yl)pyrimidin-2-yl)amino)-6,8-dioxabicyclo[3.2.1]octan-4-ol], for which the GI50 in the assay on 22RV1 cells fell in the range of 450 to 3000 nM. The pIC50 in assay [1] is 6.00 to 6.82.

Turning to `CC(C)(O)c1nc2c(F)cc(-c3nc(N[C@@H]4C[C@H]5CO[C@H](O5)[C@H]4O)ncc3Cl)cc2n1C12CC(C1)C2` [Compound 181, (1S,3R,4S,5R)-3-((4-(1-(bicyclo[1.1.1]pentan-1-yl)-4-fluoro-2-(2-hydroxypropan-2-yl)-1H-benzo[d]imidazol-6-yl)-5-chloropyrimidin-2-yl)amino)-6,8-dioxabicyclo[3.2.1]octan-4-ol], the 50% growth inhibitory concentration (GI50) in the assay on 22RV1 cells was 120 to 450 nM. In addition, the pIC50 in assay [1] was 6.00 to 6.82.

`Cc1nc2c(F)cc(-c3nc(N[C@@H]4C[C@H]5CO[C@H](O5)[C@H]4O)ncc3Cl)cc2n1[C@@H]1CCC[C@@]1(C)O` [Compound 182, (1S,3R,4S,5R)-3-((5-chloro-4-(4-fluoro-1-((1R,2R)-2-hydroxy-2-methylcyclopentyl)-2-methyl-1H-benzo[d]imidazol-6-yl)pyrimidin-2-yl)amino)-6,8-dioxabicyclo[3.2.1]octan-4-ol]: in the assay with 22RV1 cells, the GI50 lay in the range of 120 to 450 nM. Moreover, the pIC50 in assay [1] was 6.00 to 6.82.

`CN(C)C(=O)c1cc2c(F)cc(-c3nc(N[C@@H]4C[C@H]5CO[C@H](O5)[C@H]4O)ncc3Cl)cc2n1C1CCCC1` [Compound 183, 6-(5-chloro-2-(((1S,3R,4S,5R)-4-hydroxy-6,8-dioxabicyclo[3.2.1]octan-3-yl)amino)pyrimidin-4-yl)-1-cyclopentyl-4-fluoro-N,N-dimethyl-1H-indole-2-carboxamide]: the 50% growth inhibitory concentration (GI50) in the assay on 22RV1 cells is > 3000 nM. In assay [1], the pIC50 is < 6.00.

Regarding `CC(C)n1c([C@@H]2COC(=O)N2)nc2c(F)cc(-c3nc(N[C@@H]4C[C@H]5CO[C@H](O5)[C@H]4O)ncc3Cl)cc21` [Compound 184, (R)-4-(6-(5-chloro-2-(((1S,3R,4S,5R)-4-hydroxy-6,8-dioxabicyclo[3.2.1]octan-3-yl)amino)pyrimidin-4-yl)-4-fluoro-1-isopropyl-1H-benzo[d]imidazol-2-yl)oxazolidin-2-one], the concentration for 50% growth inhibition (GI50) with 22RV1 cells lay within 120 to 450 nM. Besides, the pIC50 in assay [1] was 6.00 to 6.82.

As to `CC(C)n1c([C@@H]2COC(=O)N2C)nc2c(F)cc(-c3nc(N[C@@H]4C[C@H]5CO[C@H](O5)[C@H]4O)ncc3Cl)cc21` [Compound 185, (R)-4-(6-(5-chloro-2-(((1S,3R,4S,5R)-4-hydroxy-6,8-dioxabicyclo[3.2.1]octan-3-yl)amino)pyrimidin-4-yl)-4-fluoro-1-isopropyl-1H-benzo[d]imidazol-2-yl)-3-methyloxazolidin-2-one], the concentration for 50% growth inhibition (GI50) with 22RV1 cells lay in the range of 450 to 3000 nM. In assay [1], the negative logarithm of the IC50 (pIC50) is 6.00 to 6.82.

In the case of `CC(C)n1c(-c2cn[nH]c2)nc2c(F)cc(-c3nc(N[C@@H]4C[C@H]5CO[C@H](O5)[C@H]4O)ncc3Cl)cc21` [Compound 186, (1S,3R,4S,5R)-3-((5-chloro-4-(4-fluoro-1-isopropyl-2-(1H-pyrazol-4-yl)-1H-benzo[d]imidazol-6-yl)pyrimidin-2-yl)amino)-6,8-dioxabicyclo[3.2.1]octan-4-ol], the GI50 in the assay on 22RV1 cells is 120 to 450 nM. The pIC50 in assay [1] is 6.00 to 6.82.

Consider `CC(C)n1c(-c2cnn(C)c2)nc2c(F)cc(-c3nc(N[C@@H]4C[C@H]5CO[C@H](O5)[C@H]4O)ncc3Cl)cc21` [Compound 187, (1S,3R,4S,5R)-3-((5-chloro-4-(4-fluoro-1-isopropyl-2-(1-methyl-1H-pyrazol-4-yl)-1H-benzo[d]imidazol-6-yl)pyrimidin-2-yl)amino)-6,8-dioxabicyclo[3.2.1]octan-4-ol], for which the GI50 in the assay on 22RV1 cells was 120 to 450 nM. Also, the negative logarithm of the IC50 (pIC50) in assay [1] was 6.00 to 6.82.

Turning to `CC(C)c1cn(C)c(=O)c2c(F)cc(-c3nc(N[C@@H]4C[C@H]5CO[C@H](O5)[C@H]4O)ncc3Cl)cc12` [Compound 188, 6-(5-chloro-2-(((1S,3R,4S,5R)-4-hydroxy-6,8-dioxabicyclo[3.2.1]octan-3-yl)amino)pyrimidin-4-yl)-8-fluoro-4-isopropyl-2-methylisoquinolin-1(2H)-one], the GI50 with 22RV1 cells is 120 to 450 nM. The negative-log IC50 (pIC50) in assay [1] was 6.00 to 6.82.

As for `Cc1c(-c2nc(N[C@@H]3C[C@H]4CO[C@H](O4)[C@H]3O)ncc2F)sc2c(C(C)C)cn(C)c(=O)c12` [Compound 189, 2-(5-fluoro-2-(((1S,3R,4S,5R)-4-hydroxy-6,8-dioxabicyclo[3.2.1]octan-3-yl)amino)pyrimidin-4-yl)-7-isopropyl-3,5-dimethylthieno[3,2-c]pyridin-4(5H)-one], the GI50 in the assay on 22RV1 cells is ≤ 120 nM. The negative logarithm of the IC50 (pIC50) in assay [1] is ≥ 7.40.

`Cc1c(C)n(C(C)C)c2cc(-c3nc(N[C@@H]4C[C@H]5CO[C@H](O5)[C@H]4O)ncc3F)ccc2c1=O` [Compound 190, 7-(5-fluoro-2-(((1S,3R,4S,5R)-4-hydroxy-6,8-dioxabicyclo[3.2.1]octan-3-yl)amino)pyrimidin-4-yl)-1-isopropyl-2,3-dimethylquinolin-4(1H)-one]: the 50% growth inhibitory concentration (GI50) in the assay on 22RV1 cells was 120 to 450 nM. In assay [1], the negative logarithm of the IC50 (pIC50) is 6.82 to 7.40.

Take `Cc1c(C(F)F)c(=O)c2ccc(-c3nc(N[C@@H]4C[C@H]5CO[C@H](O5)[C@H]4O)ncc3F)cc2n1C(C)C` [Compound 192, 3-(difluoromethyl)-7-(5-fluoro-2-(((1S,3R,4S,5R)-4-hydroxy-6,8-dioxabicyclo[3.2.1]octan-3-yl)amino)pyrimidin-4-yl)-1-isopropyl-2-methylquinolin-4(1H)-one]: in the assay with 22RV1 cells, the GI50 is 120 to 450 nM. For the same molecule, the negative-log IC50 (pIC50) in assay [1] was 6.00 to 6.82.
